From patent US5646316A, “Bile acid inhibitors of metalloproteinase enzymes” (OsteoArthritis Sciences, Inc., priority 1995, dated 1997) come the findings set out here.

For one assay, the target named is stromelysin (Homo sapiens, UniProt P08254). Nature of the assay: Assay of Stromelysin Inhibition Activity (fluorogenic substrate hydrolysis). Type of assay: biochemical. Particulars: for inhibition at 10 µM: read-out: percent inhibition of stromelysin. As for the experimental part:
(§1) Stromelysin was first activated by trypsin. This was done by preparing a reaction mixture in B-150 (B-150 consists of 150 mM NaCl, 20 mM Tris at pH 7.8 and 0.02% sodium azide) containing a final concentration of 4 μg/mL trypsin, 1.48 μg/mL of stromelysin, and 3.15 mM CaCl2. The reaction was incubated for 30 minutes at 37° C. and then quenched by adding soybean trypsin inhibitor to a final concentration of 43.6 μg/mL. ZnCl2 was added to the reaction mixture for a total concentration of 0.24 μM.
(§2) Following preparation of the solution of activated stromelysin, assay solutions were prepared for each inhibitor being tested. A control was also prepared. First, […] of activated stromelysin (about 45 μL from the solution of activated stromelysin) were aliquotted per assay tube. A 2.5 mM solution in 100% dimethyl sulfoxide (DMSO) was prepared for each inhibitor being tested and 1 μL from each inhibitor solution was added to one of the assay tubes. In addition, 1 μL of 100% DMSO was added to the control assay tube. All assay tubes were then pre-incubated for 5 minutes.
(§3) 5 μL of a previously prepared 50 μM solution of substrate in 15% DMSO were added to each assay tube. The substrate was a methoxycumarin developed by Knight et al. FEBS Lett. 296:263-66 (1992). The tubes were then incubated for 60 minutes, at which time the reaction was stopped with the addition of 750 μL of 0.1M NaAc pH 4.0 buffer.
(§4) Substrate hydrolysis was assessed by fluorescence using a slit width of 10:10, excitation at 328 nm and emission at 393 nm. The results of these assays are listed in Table I as percent inhibition at 10 μM of the bile acid provided compound tested or as the IC50.

The subject of a further assay is collagenase. Nature of the assay: Assay of Collagenase Inhibition Activity. It counts as biochemical. To be noted: at 10 μM of compound; 45 minutes at 37° C. As for the experimental part: as §1, §2, §3, §4
The assay procedure for collagenase was the same as described in Example 13 for stromelysin except that the trypsin activation was performed for 45 minutes. In addition, the incubation of the assay tubes at 37° C. was only for 45 minutes, and the final enzyme concentration is 6 nm. The results of these assays are provided in Table I as percent inhibition at 10 μM of the compound tested.

The assay “gelatinase (72 (Kd))” deals with T1, gelatinase (72 (Kd) (Homo sapiens, UniProt P08253)).
T1 sequence (P08253 110-660): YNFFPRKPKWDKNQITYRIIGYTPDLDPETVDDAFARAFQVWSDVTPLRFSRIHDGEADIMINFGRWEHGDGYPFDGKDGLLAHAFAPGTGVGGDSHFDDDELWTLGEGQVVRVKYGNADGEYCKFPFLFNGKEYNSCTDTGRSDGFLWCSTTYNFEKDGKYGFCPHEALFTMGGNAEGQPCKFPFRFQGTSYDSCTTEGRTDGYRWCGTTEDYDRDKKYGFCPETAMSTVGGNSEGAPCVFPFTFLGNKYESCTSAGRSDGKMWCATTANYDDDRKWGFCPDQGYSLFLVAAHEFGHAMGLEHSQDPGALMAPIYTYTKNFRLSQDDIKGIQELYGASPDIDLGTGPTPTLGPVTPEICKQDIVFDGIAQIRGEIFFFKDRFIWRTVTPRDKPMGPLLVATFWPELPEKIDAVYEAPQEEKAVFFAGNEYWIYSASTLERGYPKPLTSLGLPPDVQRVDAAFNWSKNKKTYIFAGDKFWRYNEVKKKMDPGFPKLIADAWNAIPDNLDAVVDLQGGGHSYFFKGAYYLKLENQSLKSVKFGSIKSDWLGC
Nature of the assay: Assay of Gelatinase Inhibition Activity (72 Kd gelatinase). Particulars: for inhibition at 10 µM: read-out: percent inhibition of gelatinase. It counts as biochemical. The procedure: as §1, §2, §3, §4
The assay procedure for gelatinase (72 (Kd) was the same as described in Example 13 for stromelysin except that the trypsin activation was performed for 60 minutes. In addition, the incubation of the assay tubes at 37° C. was for 60 minutes, and the final enzyme concentration was 3 nm. The results of these assays are listed in Table I as percent inhibition at 10 μM of the compound tested.

For assay [1], the system named is bovine cartilage explants. In words: Bovine Cartilage Explant Assay (35S-GAG release, rhIL-1α stimulated; tissue culture). It counts as cell-based. Particulars: Bos taurus, read-out: percent inhibition of extracellular matrix damage, Tissue Culture. The source says:
A tissue culture assay was used to measure the ability of the compounds of the present invention to slow the degradation of the extracellular matrix by metalloproteinases. This assay measured the amount of ^35 S-glycosaminoglycan (^35 S-GAG) released from labeled bovine cartilage explants.
Knee joints from a 1 to 3 week old calf were obtained immediately after sacrifice from the Abattoir and then transported on ice. The intact joints were washed well with tap water and soaked in 50% (v/v) Povidine iodine solution, obtained from Burre National, Inc., Baltimore, Md. All subsequent steps were performed in a laminar flow tissue culture hood using standard sterile technique. The joint was immobilized in a shank holder and the joint capsule was cut open to expose the articular cartilage. Cartilage explant plugs, approximately 15 mg wet weight, were removed from the flat articulating surfaces in the lower-most region of the knee joint using a sterile steel cork-borer and collected in a 250 mL roller bottle containing about 100 mL fresh Delbecco's minimum essential medium (DMEM), obtained from Gibco BRC, Life Technologies, Gaithersburg, Md., containing 4.5 g/1 (D)-glucose and (L)-glutamine, without sodium pyruvate. The fresh media also contained enough Hepes buffer and sodium bicarbonate such that the pH was about 7.4. The media was then further supplemented just before use with 100 units Penicillin, 100 μg Streptomycin, and 50 μg (L)-ascorbic acid per mL of medium.
Once collected, the explant plugs were washed four times with 50 mL fresh DMEM. The plugs were then placed in the incubator for a minimum of 1 hour to equilibrate, before proceeding to make disks from the articulating surface of each plug. A 1 mm thick disk was sliced from individual plugs from the end that was the articulating surface of the joint. The plug was held steady in the sterile template (4 mm diameter×1.5 mm deep) using sterile forceps. A scalpel blade was used to carefully slice off the disk. Only the superficial articulating surface responded well in culture.
Individual disks obtained were transferred to a tissue culture flask containing about 100 mL fresh media. The flask containing the disks was placed in an incubator at 37° C. (with 5% CO2, 95% air) and allowed to equilibrate overnight and at least one additional day before labeling. When ready to label, the old media was replaced with 50 mL fresh media containing about 500 μCi ^35 S-Sodium Sulfate. The plugs were labeled in bulk for about 48 hours. The next morning, the "hot" media was removed and replaced with fresh "cold" media. The disks were again allowed to equilibrate overnight before being used for actual experiments.
The media in which the disks were stored was changed immediately prior to performing the assay. The disks were then returned to the incubator until the test media and the two control media had been prepared. The test media consisted of a bile acid or bile acid derivative (50 μM) being tested for its ability to inhibit extracellular matrix degradation and concomitant recombinant human Interleukin rhIL-1α (5 ng/mL) in fresh DMEM solution. The control media were identical to the test media, except that the first control media lacked rhIL-1α and the second control media lacked an inhibitor, i.e. a bile acid or bile acid derivative. 250 μL of each of the test and control media were transferred to separate 96-well TC plates. Flamed forceps were used to transfer a disk from the incubator to each 96-well TC plates that had been filled with either the test media or one of the two control media.
The TC plates were then placed in the incubator and cultured for 3-4 days (initial incubation with rhIL-1α alpha takes at least 3 days to stimulate endogenous metalloproteinases). A 50 μL aliquot of media from each TC plate was saved and counted. The rest of the media was removed with a suction device.
The cartilage disks from each TC plate were also saved for counting. […]

The next assay has as its system chondrocytes. Nature of the assay: Chondrocyte Cell Culture Matrix Breakdown Assay (35S release, rhIL-1α stimulated). Type of assay: cell-based, calf. To be noted: at 50 μM; rhIL-1α 1 ng/ml; 22-24 hours. The procedure:
A cell culture assay was used to measure the ability of compounds to slow the degradation of the extracellular matrix by a metalloproteinase. This assay measured the amount ^35 S released from chondrocytes grown in a media with ^35 S labeled sodium sulfate. The cell culture assay was carried out as follows:
Two or three 1 to 3 week old calf joints were obtained from an abattoir. The proximal end of the shank was at about 4-5" long to facilitate immobilization in the holder. The joint was kept cool and transported on ice. The exterior of the intact joints was washed well with a suitable anti-microbial soap, rinsed clean with warm water, rinsed in betadine and then finally rinsed with 70% ethanol. Up to this point all steps were done in a manner to ensure that the joint was kept as clean as possible. All subsequent steps were performed in a sterile field (i.e., in a Edgeguard laminar flow tissue culture hood). The joint was immobilized and the synovial fluid was aspirated with a needle and syringe. The joint was then cut open to expose the articular cartilage using a #21 scalpel. Using locking hemostats, forceps and a #15 scalpel, the cartilage was excised in full thickness pieces. Care was taken not to cut too deep because bleeding would have occurred if the subchondral bone, was penetrated. The cartilage pieces were placed into a 50 mL centrifuge tube containing 25 mL of Delbecco's phosphate buffered saline (D-PBS) supplemented with 1% antibiotic solution (penicillin, streptomycin and fungizone; GIBCO/BRL). The slices from each joint were then placed into separate 50 mL centrifuge tubes. The D-PBS was decanted and replaced with 25 mL of fresh D-PBS supplemented with antibiotics and subsequently agitated gently.
The cartilage pieces were transferred to a fresh 50 mL centrifuge tube and rinsed once more with 25 mL of D-PBS minus antibiotics. An enzymatic digestion solution containing 1 mg/mL of hyaluronidase in serum-free 1:1 DMEM/Ham's F-12 (DMEM/F12) was prepared. This solution was filter sterilized with […] Milex--GV filter and kept on ice until ready to use. The cartilage pieces were digested with approximately 5 mL of hyaluronidase solution per joint for 2×15 minutes at 37° C. in the 50 mL centrifuge tube with gentle agitation at the 15 minute mark. This procedure removed residual hyaluronic acid from the surface of the chips. The enzymatic digestion solution was then aspirated and the cartilage pieces were rinsed with 25 mL of D-PBS.
A second enzymatic digestion solution containing 2.5 mg trypsin and 2 mg collagenase P per mL serum-free DMEM/F12 was prepared. This solution was also filter sterilized with a […] Millex--GV filter and kept on ice until ready to use. The cartilage pieces were digested with approximately 5 mL of trypsin: collagenase solution per joint for 2×15 minutes at 37° C. in the 50 mL centrifuge tube with gentle agitation at the 15 minute mark. This procedure removed the synovial fibroblasts and any adherent connective tissue from the surface of the chips. The enzymatic digestion solution was then carefully removed and saved and the cartilage pieces were rinsed with 25 mL of D-PBS.
A third enzymatic solution containing 2 mgs of collagenase P (BMB) per mL serum-free DMEM/F12 was prepared. This solution was filter sterilized with a […] Millex--GV filter and kept on ice until ready to use. The pre-digested cartilage pieces were finally digested with approximately 20 mL of enzymatic digestion solution per joint for 5-6 hours at 37° C. in a Bellco stirring digestion flask, at which point the cartilage was fully digested away.
The enzymes in the synovial fibroblast and chondrocyte digest were neutralized by addition of an equal volume of DMEM/F12 supplemented with 5% fetal bovine serum. Fibroblasts were plated in DMEM at a cellular density of 6.6×10^3 cells per cm^2. […]

Setting [2] is: at 10 μM of compound, 60 minutes at 37° C.

Read-outs that look alike come from different tables or passages of the source.

Sequence of stromelysin (P08254 100-477): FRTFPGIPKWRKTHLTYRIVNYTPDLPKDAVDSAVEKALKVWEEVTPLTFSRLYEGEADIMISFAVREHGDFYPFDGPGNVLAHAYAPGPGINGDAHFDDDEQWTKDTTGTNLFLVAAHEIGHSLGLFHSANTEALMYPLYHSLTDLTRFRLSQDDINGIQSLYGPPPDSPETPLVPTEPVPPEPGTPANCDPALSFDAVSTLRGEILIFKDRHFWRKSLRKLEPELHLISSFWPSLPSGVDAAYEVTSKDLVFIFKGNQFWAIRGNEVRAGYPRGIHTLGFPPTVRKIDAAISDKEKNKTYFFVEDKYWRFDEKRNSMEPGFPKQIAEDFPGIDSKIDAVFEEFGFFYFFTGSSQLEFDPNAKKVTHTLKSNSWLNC

Take `C[C@H](CCC(=O)O)[C@H]1CC[C@H]2[C@@H]3[C@H](O)C[C@@H]4C[C@H](O)CC[C@]4(C)[C@H]3C[C@H](O)[C@]12C` [Compound 7, Cholic acid, reference compound]: the inhibition at 10 µM on stromelysin was determined as 24%; on gelatinase (72 (Kd)), 4%. For the same compound, the “percent inhibition of collagenase” value in the assay on collagenase is listed as 21%. Further, the inhibition at 50 µM in assay [1] is -90%.
On to `C[C@H](CCC(=O)NOCc1ccccc1)[C@H]1CC[C@H]2[C@@H]3CC[C@@H]4C[C@H](O)CC[C@]4(C)[C@H]3CC[C@]12C` [Compound 11, Lithocholyl-O-Benzylhydroxamate], for which the figures for the inhibition at 10 µM at stromelysin (at 10 μM of compound) and on gelatinase (72 (Kd)) (setting [2]) were 25% and 21%, respectively. In addition, in the assay on collagenase, the “percent inhibition of collagenase” value stood at 13%.
Turning to `C[C@H](CCC(=O)N[C@@H](Cc1c[nH]c2ccccc12)C(=O)O)[C@H]1CC[C@H]2[C@@H]3CC[C@@H]4C[C@H](O)CC[C@]4(C)[C@H]3CC[C@]12C` [Compound 17, Lithocholyl-(L)-Tryptophane], the inhibition at 10 µM on gelatinase (72 (Kd)) worked out at 5%. For the same compound, the inhibition at 50 µM in assay [1] is 8%.
In the case of `C[C@H](CCC(=O)N[C@@H](Cc1c[nH]c2ccccc12)C(=O)NO)[C@H]1CC[C@H]2[C@@H]3CC[C@@H]4C[C@H](O)CC[C@]4(C)[C@H]3CC[C@]12C` [Compound 18, Lithocholyl-(L)-Tryptophane Hydroxamic Acid], the inhibition at 10 µM on stromelysin (at 10 μM of compound) amounted to 90%; at gelatinase (72 (Kd)) (setting [2]), 41%. Moreover, in the assay on collagenase, the “percent inhibition of collagenase” value amounted to 35%. The inhibition at 50 µM in assay [1] (at 50 μM, rhIL-1α 5 ng/mL, 3-4 days) stood at 3%.
In the case of `CC(C)C(CC(=O)NO)NC(=O)CC[C@@H](C)[C@H]1CC[C@H]2[C@@H]3CC[C@@H]4C[C@H](O)CC[C@]4(C)[C@H]3CC[C@]12C` (stereo partly drawn) [Compound 21, Lithocholyl-β-Leucine Hydroxamic Acid], the IC50 at stromelysin (60 minutes incubation) stood at 3 µM; against gelatinase (72 (Kd)) (60 minutes at 37° C.) it was 7 µM. Besides, the “percent inhibition, Cell Culture” value with chondrocytes came to 88%.
